Earlier results as cited in patent US20200129499A1, “COMBINATION OF TASQUINIMOD OR A PHARMACEUTICALLY ACCEPTABLE SALT THEREOF AND A PD-1 AND/OR PD-L1 INHIBITOR, FOR USE AS A MEDICAMENT” (ACTIVE BIOTECH AB, priority 2015, published 2020).

System: metastatic bladder cancer
Details: phase 1a study, cited from earlier work

For “atezolizumab: anti-PD-L1 human IgG1 antibody (Roche)”, the “people alive at 1 year” value (people with the highest levels of PD-L1 expression) is given as 57% and the “Complete responses (CRs)” value (metastatic bladder cancer) is given as 20%.
